According to ChEMBL document CHEMBL1201862, “PubChem BioAssay data set” (2004):
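Compound exposure: 48 hours, 5 concentrations, 96-well plates. GI50: concentration for 50% inhibition of growth.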 Activity calls are given as the source filed them. No stated cut-off is given here; in the data, active = GI50 up to about 1.1 µM and inactive = higher.

Tests used:
Assay in all cases: DTP human tumour cell line panel, 48 h
[1] = tested on: ACHN
[2] = tested on: COLO 205
[3] = tested on: HCT-116
[4] = tested on: HOP-62
[5] = tested on: IGROV-1
[6] = tested on: M14
[7] = tested on: MDA-MB-231
[8] = tested on: MDA-MB-435
[9] = tested on: MOLT-4
[10] = tested on: NCI-H460
[11] = tested on: OVCAR-8
[12] = tested on: RPMI-8226
[13] = tested on: SK-MEL-2
[14] = tested on: SK-MEL-5
[15] = tested on: SN12C
[16] = tested on: SW-620
[17] = tested on: T47D
[18] = tested on: UACC-62
[19] = tested on: UO-31
[20] = tested on: HCC 2998

Measured: GI50

O=C(O)C1(C(=O)O)CCN(S(=O)(=O)c2ccccc2)CC1
inactive: [1] > 100 µM | [2] > 100 µM | [3] > 100 µM | [4] > 100 µM | [5] > 100 µM | [6] > 100 µM | [7] > 100 µM | [8] > 100 µM | [9] > 100 µM | [10] > 100 µM | [11] > 100 µM | [12] > 100 µM | [13] > 100 µM | [14] > 100 µM | [15] > 100 µM | [16] > 100 µM | [17] > 100 µM | [18] > 100 µM | [19] > 100 µM

N#CC(NCCO)=C1C(=O)c2ccccc2C1=O
inactive: [1] > 100 µM | [2] > 100 µM | [3] > 100 µM | [4] > 100 µM | [5] > 100 µM | [6] > 100 µM | [7] > 100 µM | [8] > 100 µM | [9] > 100 µM | [10] > 100 µM | [11] > 100 µM | [12] > 100 µM | [13] > 100 µM | [14] > 100 µM | [15] > 100 µM | [16] > 100 µM | [17] > 100 µM | [18] > 100 µM | [19] > 100 µM

O=C(CC(O)(C(F)(F)F)C(F)(F)F)c1cccs1
inactive: [1] > 10 µM | [2] > 10 µM | [20] > 10 µM | [3] > 10 µM | [4] > 10 µM | [5] > 10 µM | [6] > 10 µM | [7] > 10 µM | [8] > 10 µM | [9] > 10 µM | [11] > 10 µM | [12] > 10 µM | [14] > 10 µM | [15] > 10 µM | [16] > 10 µM | [17] > 10 µM | [18] > 10 µM

Cc1nc(N(C(C)C)C(C)C)c(C(C)C)o1
inactive: [1] > 100 µM | [2] > 100 µM | [20] > 100 µM | [3] > 100 µM | [4] > 100 µM | [5] > 100 µM | [6] > 100 µM | [7] > 100 µM | [8] > 100 µM | [9] > 100 µM | [10] > 100 µM | [11] > 100 µM | [14] > 100 µM | [15] > 100 µM | [16] > 100 µM | [17] > 100 µM | [18] > 100 µM | [19] > 100 µM

CC1=C(O)C(=O)C2=C(C1=O)[C@@H]([C@@H](C)C/C=C/C(C)(C)O)CC[C@@H]2C
inactive: [1] 31.4 µM | [2] > 100 µM | [3] 38.1 µM | [4] > 100 µM | [5] 69.5 µM | [6] 61 µM | [7] > 100 µM | [8] 43.2 µM | [9] 35.9 µM | [10] 55.5 µM | [11] 78.9 µM | [12] 23.5 µM | [13] 39.5 µM | [14] 35.2 µM | [15] 87.1 µM | [16] 77.4 µM | [17] 27.2 µM | [18] 47.4 µM | [19] 62.2 µM

CCOC1(OCC)C2C=CC1C(COS(=O)(=O)c1ccc(C)cc1)C2COS(=O)(=O)c1ccc(C)cc1 (centres undefined)
inactive: [1] 33.7 µM | [2] 24.1 µM | [20] 38.3 µM | [3] 21.5 µM | [4] 45.8 µM | [5] 43.1 µM | [6] 26.8 µM | [7] 22.1 µM | [8] 29 µM | [9] 11.9 µM | [10] 35.5 µM | [11] 40.9 µM | [13] 28.7 µM | [14] 15.2 µM | [15] 69.8 µM | [16] 36.3 µM | [17] 14.2 µM | [18] 20.4 µM | [19] 22.8 µM

COC(=O)C1=NN2c3ccccc3CN([C@@H](C)c3ccccc3)C(=O)[C@@H]2[C@H]1c1ccccc1
inactive: [1] > 100 µM | [2] > 100 µM | [20] > 100 µM | [3] > 100 µM | [4] > 100 µM | [6] > 100 µM | [7] > 100 µM | [8] > 100 µM | [9] 5.66 µM | [10] > 100 µM | [11] > 100 µM | [13] > 100 µM | [14] > 100 µM | [15] > 100 µM | [16] > 100 µM | [17] 9.75 µM | [18] > 100 µM | [19] > 100 µM

Cc1ccc2c(c1)C(=O)/C(=C\c1ccccc1)CCS2(=O)=O
inactive: [1] 11.4 µM | [2] 17.4 µM | [20] 12.2 µM | [3] 6.43 µM | [4] 20.9 µM | [5] 9.68 µM | [6] 19.8 µM | [7] 12.7 µM | [8] 10.8 µM | [9] 4.54 µM | [10] 9.12 µM | [11] 11.6 µM | [13] 18.6 µM | [14] 11.6 µM | [15] 14.2 µM | [16] 15.5 µM | [17] 11.7 µM | [18] 11.9 µM | [19] 10.8 µM

COC(=O)C1=C(O)C(C(=O)OC)[C@@]2(O)[C@@H](C(=O)OC)C(c3ccc(OC(=O)/C=C/c4ccccc4)cc3)C[C@@H]1[C@@H]2C(=O)OC (some centres undefined)
inactive: [1] 18.9 µM | [2] 10.1 µM | [20] 4.89 µM | [3] 4.24 µM | [4] 23.8 µM | [5] 8.04 µM | [6] 6.84 µM | [7] 14.7 µM | [8] 4.83 µM | [9] 2.61 µM | [10] 2.64 µM | [11] 8.69 µM | [13] 4.32 µM | [14] 10.6 µM | [15] 7.11 µM | [16] 6.01 µM | [17] 8.49 µM | [18] 4.36 µM | [19] 10.6 µM

C=C(CN(C)C)C(=O)c1ccccc1[N+](=O)[O-]
inactive: [1] 16.1 µM | [2] 7.8 µM | [20] 29.9 µM | [3] 17.3 µM | [4] 38.7 µM | [5] 22.2 µM | [6] 15.5 µM | [7] 18.2 µM | [8] 16.1 µM | [10] 34 µM | [11] 20.2 µM | [13] 18 µM | [14] 18.8 µM | [15] 17.7 µM | [16] 11.3 µM | [17] 3.83 µM | [18] 17.9 µM | [19] 17.7 µM

NS(=O)(=O)c1ccc(NS(=O)(=O)c2ccc(NC(=O)N(c3ccccc3)c3ccccc3)cc2)cc1
inactive: [1] > 100 µM | [2] > 100 µM | [3] 82.4 µM | [4] 52.8 µM | [5] 59 µM | [6] 41.3 µM | [7] > 100 µM | [8] 24.9 µM | [9] 34 µM | [10] 65.6 µM | [11] > 100 µM | [12] 24.8 µM | [13] 48.5 µM | [14] 68.2 µM | [15] > 100 µM | [16] > 100 µM | [17] 48 µM | [18] 63.4 µM | [19] > 100 µM
